Measurements as given in US20190208782A1, “PROCESSING COMPOSITION FOR C[…] WEEDS” (Arch Chemicals, Inc., priority 2018, published 2019).
≈ marks a conversion by molar mass, not a printed value.

Tested on: Eurasian watermilfoil
Experiment: Efficacy of fluroxypyr herbicide on Eurasian watermilfoil under mesocosm conditions (Example 1)
Type: in vivo
Conditions: 24 h exposure
Source text: Materials and Methods: Eurasian watermilfoil was obtained from cultures. Two apical tips approximately 15 cm long were planted into each of 108, plastic containers. The containers were filled with Black Kow potting soil and amended with 2 g/L Osmocote fertilizer 19-6-12. Four containers of potted Eurasian watermilfoil were placed into each of 27 mesocosm tanks. Mesocosm tanks were filled to a volume of 276 L (48 cm depth) and plants allowed to grow approximately 2-3 weeks prior to herbicide treatments or until plants were at or near the water surface. Pre-treatment biomass was harvested from an extra mesocosm tank set up with potted Eurasian watermilfoil for this purpose. Biomass was harvested by collecting aboveground biomass of plants in the tank. Plant material were dried at 70 C for at least 48 h and weighed to assess biomass.
After pre-treatment data collection, concentrated liquid herbicides were applied as the formulations and rates outlined in Table 1. An untreated reference was also included for comparison purposes. All herbicide applications were made using a 24 h exposure and replicated 3 times. After the exposure time was reached, each mesocosm tank was drained and refilled with fresh water to remove any herbicide residue remaining in the water column.
Each week, tanks were rated for percent control on a 0-100% scale (0%=no control; 100%=complete plant mortality). Four weeks after treatment (WAT), living plants were harvested, sorted to aboveground biomass, dried, and weighed for biomass determination. Differences between treatments were analyzed using an ANOVA test with means separated using a Fisher's Protected LSD test. Fluroxypyr data were fitted to an exponential decay regression model in order to estimate the EC50 value for fluroxypyr use on Eurasian watermilfoil.

**Q.** How did the “Visual control ratings of Eurasian watermilfoil” value (shortened to “Visual control ratings”) (50 ug/L, 1 WAT) turn out when `CCCCCCC(C)OC(=O)COc1nc(F)c(Cl)c(N)c1Cl` (stereo not shown) [Fluroxypyr ester, [(4-amino-3,5-dichloro-6-fluoro-2-pyridinyl)oxy]acetic acid, 1-methylheptyl ester] was run?
**A.** 30%

**Q.** What about the “Visual control ratings” value (50 ug/L, 2 WAT) of the same compound?
**A.** 60%

**Q.** And the “Visual control ratings” value (50 ug/L, 3 WAT)?
**A.** 50%

**Q.** What about the “Visual control ratings” value (50 ug/L, 4 WAT) of the same compound?
**A.** 45%

**Q.** And the “biomass reduction of Eurasian watermilfoil” value (50 ug/L, 4 WAT)?
**A.** 76%

**Q.** And the “Visual control ratings” value (100 ug/L, 1 WAT)?
**A.** 60%

**Q.** What about the “Visual control ratings” value (100 ug/L, 2 WAT) of the same compound?
**A.** 90%

**Q.** What about the “Visual control ratings” value (100 ug/L, 3 WAT) of the same compound?
**A.** 90%

**Q.** And the “Visual control ratings” value (100 ug/L, 4 WAT)?
**A.** 95%

**Q.** What about the “biomass reduction of Eurasian watermilfoil” value (100 ug/L, 4 WAT) of the same compound?
**A.** 99%

**Q.** What about the “Visual control ratings” value (200 ug/L, 1 WAT) of the same compound?
**A.** 60%

**Q.** What about the “Visual control ratings” value (200 ug/L, 2 WAT) of the same compound?
**A.** 100%

**Q.** And the “Visual control ratings” value (200 ug/L, 3 WAT)?
**A.** 100%

**Q.** And the “Visual control ratings” value (200 ug/L, 4 WAT)?
**A.** 100%

**Q.** And the “Visual control ratings” value (400 ug/L, 1 WAT)?
**A.** 70%

**Q.** And the “Visual control ratings” value (400 ug/L, 2 WAT)?
**A.** 100%

**Q.** And the “Visual control ratings” value (400 ug/L, 3 WAT)?
**A.** 100%

**Q.** What about the “Visual control ratings” value (400 ug/L, 4 WAT) of the same compound?
**A.** 100%

**Q.** And the “Visual control ratings” value (800 ug/L, 1 WAT)?
**A.** 70%

**Q.** What about the “Visual control ratings” value (800 ug/L, 2 WAT) of the same compound?
**A.** 100%

**Q.** And the “Visual control ratings” value (800 ug/L, 3 WAT)?
**A.** 100%

**Q.** And the “Visual control ratings” value (800 ug/L, 4 WAT)?
**A.** 100%

**Q.** And the “Visual control ratings” value (1600 ug/L, 1 WAT)?
**A.** 80%

**Q.** What about the “Visual control ratings” value (1600 ug/L, 2 WAT) of the same compound?
**A.** 100%

**Q.** And the “Visual control ratings” value (1600 ug/L, 3 WAT)?
**A.** 100%

**Q.** What about the “Visual control ratings” value (1600 ug/L, 4 WAT) of the same compound?
**A.** 100%

**Q.** And the “Visual control ratings” value (3200 ug/L, 1 WAT)?
**A.** 80%

**Q.** And the “Visual control ratings” value (3200 ug/L, 2 WAT)?
**A.** 100%

**Q.** What about the “Visual control ratings” value (3200 ug/L, 3 WAT) of the same compound?
**A.** 100%

**Q.** What about the “Visual control ratings” value (3200 ug/L, 4 WAT) of the same compound?
**A.** 100%

**Q.** And the EC50 (4 WAT, mesocosm, read-out: EC50 for Eurasian watermilfoil (biomass, exponential decay regression model))?
**A.** 8.8 ng/mL (≈ 0.024 µM)
